From the NIST ThermoML archive (doi:10.1021/je100832h)

Key:
[1] = xn = mol fraction of the nth substance listed; details: 101.32 kPa, Liquid, Vibrating tube method
[2] = excess molar enthalpy (molar enthalpy of mixing); xn = mol fraction of the nth substance listed; details: 101 kPa, Liquid, Calvet calorimetry

CCCCCCCC [octane] + CCOC(C)=O
Details | excess molar enthalpy [kcal/mol] | mass density [kg/m3]
[1], 291.15 K, x2 = 0 | – | 704.13
[1], 291.15 K, x2 = 0.0296 | – | 707.15
[1], 291.15 K, x2 = 0.0628 | – | 710.48
[1], 291.15 K, x2 = 0.1163 | – | 716.36
[1], 291.15 K, x2 = 0.1605 | – | 721.46
[1], 291.15 K, x2 = 0.2056 | – | 727.01
[1], 291.15 K, x2 = 0.2901 | – | 738.23
[1], 291.15 K, x2 = 0.3723 | – | 750.35
[1], 291.15 K, x2 = 0.4427 | – | 761.76
[1], 291.15 K, x2 = 0.5131 | – | 774.24
[1], 291.15 K, x2 = 0.5744 | – | 785.94
[1], 291.15 K, x2 = 0.6332 | – | 798.14
[1], 291.15 K, x2 = 0.6886 | – | 810.54
[1], 291.15 K, x2 = 0.7414 | – | 823.25
[1], 291.15 K, x2 = 0.7945 | – | 836.98
[1], 291.15 K, x2 = 0.84 | – | 849.83
[1], 291.15 K, x2 = 0.895 | – | 866.53
[1], 291.15 K, x2 = 0.9304 | – | 878.05
[1], 291.15 K, x2 = 0.9523 | – | 885.46
[1], 298.15 K, x2 = 0 | – | 698.6
[1], 298.15 K, x2 = 0.0485 | – | 703.3
[1], 298.15 K, x2 = 0.0998 | – | 708.8
[1], 298.15 K, x2 = 0.1711 | – | 716.9
[1], 298.15 K, x2 = 0.2518 | – | 727.02
[1], 298.15 K, x2 = 0.3198 | – | 736.29
[1], 298.15 K, x2 = 0.3814 | – | 745.42
[1], 298.15 K, x2 = 0.4622 | – | 758.48
[1], 298.15 K, x2 = 0.4977 | – | 764.69
[1], 298.15 K, x2 = 0.5598 | – | 776.23
[1], 298.15 K, x2 = 0.6548 | – | 795.8
[1], 298.15 K, x2 = 0.6729 | – | 799.8
[1], 298.15 K, x2 = 0.6865 | – | 802.9
[1], 298.15 K, x2 = 0.755 | – | 819.2
[1], 298.15 K, x2 = 0.7913 | – | 828.6
[1], 298.15 K, x2 = 0.8335 | – | 840.2
[1], 298.15 K, x2 = 0.8686 | – | 850.5
[1], 298.15 K, x2 = 0.9039 | – | 861.4
[1], 298.15 K, x2 = 0.9578 | – | 879.3
[1], 318.15 K, x2 = 0 | – | 682.16
[1], 318.15 K, x2 = 0.034 | – | 685.37
[1], 318.15 K, x2 = 0.108 | – | 692.6
[1], 318.15 K, x2 = 0.1961 | – | 702.19
[1], 318.15 K, x2 = 0.2859 | – | 713.24
[1], 318.15 K, x2 = 0.3635 | – | 723.8
[1], 318.15 K, x2 = 0.4203 | – | 732.23
[1], 318.15 K, x2 = 0.4875 | – | 743.04
[1], 318.15 K, x2 = 0.5678 | – | 757.24
[1], 318.15 K, x2 = 0.6088 | – | 765.1
[1], 318.15 K, x2 = 0.6633 | – | 776.23
[1], 318.15 K, x2 = 0.7123 | – | 786.92
[1], 318.15 K, x2 = 0.764 | – | 799.14
[1], 318.15 K, x2 = 0.8086 | – | 810.54
[1], 318.15 K, x2 = 0.8487 | – | 821.51
[1], 318.15 K, x2 = 0.8943 | – | 834.53
[1], 318.15 K, x2 = 0.932 | – | 846.34
[1], 318.15 K, x2 = 0.9762 | – | 860.93
[1], 328.15 K, x2 = 0 | – | 674.15
[1], 328.15 K, x2 = 0.0441 | – | 678
[1], 328.15 K, x2 = 0.1138 | – | 684.7
[1], 328.15 K, x2 = 0.2084 | – | 694.85
[1], 328.15 K, x2 = 0.2915 | – | 704.8
[1], 328.15 K, x2 = 0.3741 | – | 715.9
[1], 328.15 K, x2 = 0.4415 | – | 725.91
[1], 328.15 K, x2 = 0.5234 | – | 739.31
[1], 328.15 K, x2 = 0.5735 | – | 748.22
[1], 328.15 K, x2 = 0.6354 | – | 760.07
[1], 328.15 K, x2 = 0.6861 | – | 770.65
[1], 328.15 K, x2 = 0.7435 | – | 783.45
[1], 328.15 K, x2 = 0.7958 | – | 796.07
[1], 328.15 K, x2 = 0.8407 | – | 807.86
[1], 328.15 K, x2 = 0.8822 | – | 819.28
[1], 328.15 K, x2 = 0.927 | – | 832.83
[1], 328.15 K, x2 = 0.9737 | – | 848.01
[2], 291.15 K, x2 = 0.0994 | 0.146 | –
[2], 291.15 K, x2 = 0.1715 | 0.23 | –
[2], 291.15 K, x2 = 0.254 | 0.303 | –
[2], 291.15 K, x2 = 0.3369 | 0.355 | –
[2], 291.15 K, x2 = 0.4081 | 0.383 | –
[2], 291.15 K, x2 = 0.474 | 0.399 | –
[2], 291.15 K, x2 = 0.5317 | 0.4 | –
[2], 291.15 K, x2 = 0.5698 | 0.392 | –
[2], 291.15 K, x2 = 0.5955 | 0.386 | –
[2], 291.15 K, x2 = 0.6441 | 0.371 | –
[2], 291.15 K, x2 = 0.6953 | 0.344 | –
[2], 291.15 K, x2 = 0.7435 | 0.313 | –
[2], 291.15 K, x2 = 0.7996 | 0.272 | –
[2], 291.15 K, x2 = 0.853 | 0.226 | –
[2], 291.15 K, x2 = 0.8967 | 0.176 | –
[2], 291.15 K, x2 = 0.9435 | 0.118 | –
[2], 291.15 K, x2 = 0.981 | 0.0581 | –
[2], 298.15 K, x2 = 0.0774 | 0.102 | –
[2], 298.15 K, x2 = 0.1517 | 0.178 | –
[2], 298.15 K, x2 = 0.2198 | 0.243 | –
[2], 298.15 K, x2 = 0.2861 | 0.293 | –
[2], 298.15 K, x2 = 0.3374 | 0.326 | –
[2], 298.15 K, x2 = 0.3769 | 0.352 | –
[2], 298.15 K, x2 = 0.4335 | 0.377 | –
[2], 298.15 K, x2 = 0.4856 | 0.384 | –
[2], 298.15 K, x2 = 0.5281 | 0.383 | –
[2], 298.15 K, x2 = 0.5773 | 0.38 | –
[2], 298.15 K, x2 = 0.6255 | 0.371 | –
[2], 298.15 K, x2 = 0.6736 | 0.351 | –
[2], 298.15 K, x2 = 0.7261 | 0.325 | –
[2], 298.15 K, x2 = 0.7729 | 0.292 | –
[2], 298.15 K, x2 = 0.8276 | 0.246 | –
[2], 298.15 K, x2 = 0.8796 | 0.191 | –
[2], 298.15 K, x2 = 0.9202 | 0.129 | –
[2], 298.15 K, x2 = 0.9644 | 0.0648 | –
[2], 318.15 K, x2 = 0.0832 | 0.111 | –
[2], 318.15 K, x2 = 0.1591 | 0.195 | –
[2], 318.15 K, x2 = 0.2322 | 0.267 | –
[2], 318.15 K, x2 = 0.3009 | 0.319 | –
[2], 318.15 K, x2 = 0.3637 | 0.353 | –
[2], 318.15 K, x2 = 0.4184 | 0.374 | –
[2], 318.15 K, x2 = 0.4655 | 0.384 | –
[2], 318.15 K, x2 = 0.5112 | 0.388 | –
[2], 318.15 K, x2 = 0.5525 | 0.386 | –
[2], 318.15 K, x2 = 0.5886 | 0.382 | –
[2], 318.15 K, x2 = 0.6324 | 0.371 | –
[2], 318.15 K, x2 = 0.6807 | 0.355 | –
[2], 318.15 K, x2 = 0.7307 | 0.328 | –
[2], 318.15 K, x2 = 0.7788 | 0.293 | –
[2], 318.15 K, x2 = 0.8291 | 0.248 | –
[2], 318.15 K, x2 = 0.8801 | 0.192 | –
[2], 318.15 K, x2 = 0.9259 | 0.13 | –
[2], 318.15 K, x2 = 0.9646 | 0.0667 | –
